Laboratory results as given in patent publication US20230279023A1, “N/O-Linked Degrons and Degronimers for Protein Degradation” (C4 Therapeutics, Inc., priority 2019, published 2023).

Molecular target: CRBN-DDB1 (Homo sapiens (Human), UniProt Q96SW2)
Experiment: Fluorescence polarization (FP) assay for compound ligand binding to CRBN-DDB1
Conditions: FP displacement of (−)-Thalidomide-Alexa Fluor or Pomalidomide-fluorescein probe, 400 nM CRBN-DDB1, 5 nM probe
Experimental: Measuring compound ligand binding to CRBN-DDB1 was carried out using an established sensitive and quantitative in vitro fluorescence polarization (FP) based binding assay. […] Compounds were dispensed from serially diluted DMSO stock into black 384-well compatible fluorescence polarization plates using an Echo acoustic dispenser. Compound binding to CRBN-DDB1 was measured by displacement of either a (−)-Thalidomide-Alexa Fluor® or Pomalidomide-fluorescein conjugated probe dye. […] Matching control wells excluding CRBN-DDB1 were used to correct for background fluorescence. Plates were read on an Envision plate reader with appropriate FP filter sets. The corrected S (perpendicular) and P (parallel) values were used to calculate fluorescence polarization (FP) with the following equation: […]

[1] = Additional Compounds of the Present Invention

Chain of CRBN-DDB1 (Q96SW2 whole entry): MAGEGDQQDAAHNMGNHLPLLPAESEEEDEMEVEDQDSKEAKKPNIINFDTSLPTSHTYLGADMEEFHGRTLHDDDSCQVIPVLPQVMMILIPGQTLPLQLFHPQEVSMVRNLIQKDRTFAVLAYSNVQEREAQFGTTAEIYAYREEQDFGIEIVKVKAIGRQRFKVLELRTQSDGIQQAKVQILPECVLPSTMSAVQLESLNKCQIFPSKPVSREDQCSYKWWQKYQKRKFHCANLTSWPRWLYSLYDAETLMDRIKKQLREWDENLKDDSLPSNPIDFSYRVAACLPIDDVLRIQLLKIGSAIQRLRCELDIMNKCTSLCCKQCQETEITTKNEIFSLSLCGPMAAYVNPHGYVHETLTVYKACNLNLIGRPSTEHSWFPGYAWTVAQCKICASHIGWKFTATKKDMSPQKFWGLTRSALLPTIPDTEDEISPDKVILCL
Chain of CRBN-DDB1 (Q16531 whole entry partner): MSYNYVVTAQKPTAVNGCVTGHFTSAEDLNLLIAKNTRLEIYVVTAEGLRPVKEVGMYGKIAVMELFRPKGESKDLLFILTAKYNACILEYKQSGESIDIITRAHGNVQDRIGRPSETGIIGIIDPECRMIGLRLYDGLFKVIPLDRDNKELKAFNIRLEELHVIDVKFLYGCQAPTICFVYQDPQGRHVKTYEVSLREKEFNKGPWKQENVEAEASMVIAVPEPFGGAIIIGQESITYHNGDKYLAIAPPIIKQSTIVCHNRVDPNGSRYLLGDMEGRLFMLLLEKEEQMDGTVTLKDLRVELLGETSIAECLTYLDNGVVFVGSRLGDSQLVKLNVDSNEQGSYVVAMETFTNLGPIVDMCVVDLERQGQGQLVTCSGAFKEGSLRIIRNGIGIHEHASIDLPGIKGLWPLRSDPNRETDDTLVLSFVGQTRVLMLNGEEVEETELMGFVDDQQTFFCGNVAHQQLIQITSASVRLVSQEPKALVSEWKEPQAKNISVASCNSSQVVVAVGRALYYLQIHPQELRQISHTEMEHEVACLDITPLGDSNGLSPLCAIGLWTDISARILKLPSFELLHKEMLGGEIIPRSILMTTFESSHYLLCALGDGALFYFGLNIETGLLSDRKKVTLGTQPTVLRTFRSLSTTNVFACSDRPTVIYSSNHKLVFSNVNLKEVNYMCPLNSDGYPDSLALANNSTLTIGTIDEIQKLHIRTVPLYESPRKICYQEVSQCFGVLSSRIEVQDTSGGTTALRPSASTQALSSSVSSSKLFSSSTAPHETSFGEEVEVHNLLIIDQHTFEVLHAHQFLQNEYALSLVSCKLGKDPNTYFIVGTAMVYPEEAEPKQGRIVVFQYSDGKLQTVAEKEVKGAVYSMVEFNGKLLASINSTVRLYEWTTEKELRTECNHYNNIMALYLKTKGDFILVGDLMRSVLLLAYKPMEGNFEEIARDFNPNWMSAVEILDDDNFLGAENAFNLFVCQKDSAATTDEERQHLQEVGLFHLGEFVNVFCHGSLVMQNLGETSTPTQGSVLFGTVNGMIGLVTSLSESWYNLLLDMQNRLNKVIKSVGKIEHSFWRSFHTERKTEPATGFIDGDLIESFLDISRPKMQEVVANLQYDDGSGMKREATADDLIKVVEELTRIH

| Compound | Kd [1] | Kd (Degronimers) |
| --- | --- | --- |
| CC(=O)CCc1ccc(OC2CCC(=O)NC2=O)cc1 (stereo not shown) [Compound 154] | < 10 µM |  |
| CN1Cc2cc(NC3CCC(=O)NC3=O)ccc2C1=O (stereo not shown) [Compound 160] | < 10 µM |  |
| Cc1sc2c(c1C)C(c1ccc(Cl)cc1)=N[C@@H](CC(=O)NCCCCCCCCN1CCN(c3ccc(NC4CCC(=O)NC4=O)cc3)CC1)c1nnc(C)n1-2 (stereo partly drawn) [Degronimer 1, 2-((S)-4-(4-chlorophenyl)-2,3,9-trimethyl-6H-thieno[3,2-f][1,2,4]triazolo[4,3-a][1,4]diazepin-6-yl)-N-(8-(4-(4-((2,6-dioxopiperidin-3-yl)amino)phenyl)piperazin-1-yl)octyl)acetamide] |  | < 10 µM |
| Cc1nnc2n1-c1ccc(-c3cnn(CCCCCCN4CCN(c5ccc(NC6CCC(=O)NC6=O)cc5)CC4)c3)cc1C(c1ccc(Cl)cc1)=NC21CC1 (stereo not shown) [Degronimer 2, 3-((4-(4-(6-(4-(6-(4-chlorophenyl)-1-methylspiro[benzo[f][1,2,4]triazolo[4,3-a][1,4]diazepine-4,1′-cyclopropan]-8-yl)-1H-pyrazol-1-yl)hexyl)piperazin-1-yl)phenyl)amino)piperidine-2,6-dione] |  | < 10 µM |
